# Test results as given in patent US6602896B1, “p38MAPK inhibitor and uses thereof” (The Board of Trustees of the University of Arkansas, priority 1999, dated 2003).
# Assays:
# [1] = tested on: LDL receptor expression; test: Northern blotting of LDL receptor mRNA in HepG2 cells; assay type: cell-based, human
# Method: (§1) 5×10^5 cells were plated on day 0. On day 2, cells were refed with fresh medium. On day. 4, cells were either left untreated (0) or treated for the indicated times with SB202190 (2.5 μM) in medium containing 0.5% FBS. Total RNA was isolated and subjected to Northern blotting to determine amounts of LDL receptor, squalene synthase (SS) genes, and actin mRNAs. Autoradiographs were quantitated densitometrically. LDL receptor mRNA levels were normalized to actin mRNA levels. In the bottom panel, results are expressed as the fold induction by SB 202190 as compared with uninduced cells (set at 1). Values obtained are the averages of three separate experiments, with the standard deviations shown.
# HepG2 cells were grown as described in FIG. 1. On day 4, medium was changed to either 10% LPDS alone or 10% LPDS supplemented with 25-hydroxycholesterol (2 μg/ml) and cholesterol (10 μg/ml), and after 2 hours, cells were treated with indicated concentrations of SB202190 for an additional 4 hours. Levels of LDL receptor and SS mRNAs were determined by Northern analysis and densitometry as described previously. RNA levels were normalized by comparison with levels of actin. Values obtained from cells cultured in the absence of sterols and SB202190 were set at 1. Values shown are the average of two different experiments.
# Total RNA was subjected to Northern blot analysis, and the filter was hybridized with a ^32P-labeled LDL receptor probe. Values shown are the averages of two different experiments. […] Values obtained from the control cells grown in the absence of SB202190 or PD98059 were arbitrarily set at 1.
# HepG2 cells were grown as described in FIG. 1. On day 4, cells cultured for 1 h in 0.5% FBS containing different amounts of cycloheximide (1 μg/ml, 2 μg/ml, and 5 μg/ml) were then incubated with SB202190 (2.5 μM) for an additional 4 h. LDL receptor and actin mRNA levels were analyzed by Northern blotting of total RNA. Values obtained from cells with no additions were arbitrarily set at 1. […] Results shown are representative of one experiment.
# In FIG. 8A, HepG2 cells were pretreated for 30 minutes with the indicated concentration of the above inhibitors and then treated with […] SB202190 for an additional 4 hours. Total RNA was subjected to Northern blotting for measurement of LDL receptor mRNA levels.
# Human hepatoma cell line HepG2 and its derivative HepG2-ΔRaf-1:ER cell line that stably expresses the ΔRaf-1:ER chimera were maintained as monolayer cultures in a humidified 5% CO2 atmosphere at 37° C. in Eagle's minimum essential medium (EMEM) (Bio Whittaker, Md.) supplemented with 10% fetal bovine serum (FBS) (Life Technologies Inc.), 2 mM L-glutamine, 20 units/ml penicillin and 20 μg/ml streptomycin sulphate.
# Total RNA was isolated using TRIzol, and Northern blotting was done essentially as described earlier (43, 44). Briefly, 20 μg total cellular RNA was fractionated on 1% formaldehyde agarose gel and transferred to Zeta Probe membrane by capillary blotting. RNA blots were hybridized with LDL receptor and squalene synthase specific single-stranded M13 probes labeled with [α-^32P ]dCTP. Hybridized filters were washed and exposed to Kodak X-ray film. The relative intensities of specific bands were determined densitometrically within the linear range of the film on a model 300A laser densitometer (Molecular Dyanamics, Calif.) with Image Quant software. LDL receptor mRNA was normalized to squalene synthase (SS) (included in this study) or to α-actin (data not shown) mRNA level, and data for each point were plotted as the percentage of LDL receptor mRNA as compared to controls. […]
# [2] = tested on: squalene synthase (SS); test: Northern blotting of squalene synthase (SS) mRNA in HepG2 cells; assay type: cell-based, human; settings: SB202190 2.5 μM
# Method: as §1, with “shown. […]” for “shown.”
# Total RNA was isolated using TRIzol, and Northern blotting was done essentially as described earlier (43, 44). […] The relative intensities of specific bands were determined densitometrically within the linear range of the film on a model 300A laser densitometer (Molecular Dyanamics, Calif.) with Image Quant software. […]
# [3] = tested on: MEK-1/2; test: Immunoblot of phospho-MEK-1/2 in HepG2 cells; assay type: cell-based, human; settings: SB202190 2.5 μM
# Method: 2×10^5 cells were grown and treated as described in FIG. 1. After the indicated times, equal amounts of cell lysates were blotted with anti-phospho-p42/44^MAPK antibody, phosphorylation-independent p42/44^MAPK antibody, anti-phospho p46/54^JNK antibody, anti-phospho-MEK-1/2, or phosphorylation-independent MKP-1.
# HepG2 cells were cultured in the absence or presence of 1 μM staurosporine or 5 μM PD98059 for 30 min. SB202190 (2.5 μM) was then added to the cells for 4 h, cell lysate was subjected to immunoblotting to measure the phosphorylation levels of p42/44^MAPK and MEK-1/2. […]
# Proteins were fractionated by SDS-PAGE with an 10% acrylamide separation gel, and the separated proteins were transferred to nitrocellulose, and processed as described previously (43, 44). […] After further washing in Tris/NaCl/Tween-20, membranes were incubated for 1 h with horseradish peroxidase-linked anti-IgG secondary antibody (Bio-Rad, diluted 1:5000), and immunoreactive proteins were detected by ECL as described by the supplier. Quantitative analyses of protein levels were performed by densitometric scanning of the autoradiograms, and are representative of 3 or more independent experiments.
# [4] = tested on: p42/44^MAPK; settings: even at higher concentrations (100 μM); cited from earlier work
smiles,measurement,setting,value
"Oc1ccc(-c2nc(-c3ccc(F)cc3)c(-c3ccncc3)[nH]2)cc1 [SB202190, 4-(4-Fluorophenyl)-2-(4-hydroxyphenyl)-5-(4-pyridyl) 1H-imidazole]",LDL receptor expression in the presence of sterols,"[1]; HepG2, 10% LPDS with 25-hydroxycholesterol (2 μg/ml) and cholesterol (10 μg/ml), SB202190 4 hours",slight increase in the suppressed levels of LDL receptor
same,most effective concentration for LDL receptor induction,[1]; HepG2 cells,2.5 µM
same,time after which plateau of LDL receptor expression was reached,"[1]; HepG2 cells, SB202190 2.5 μM",8 h
same,time at which a significant increase in LDL receptor expression was apparent,"[1]; HepG2 cells, SB202190 2.5 μM",4 h
same,induction of LDL receptor expression,"[1]; HepG2 cells, SB202190 alone",6-8 fold
same,induction of LDL receptor expression (Northern blotting),"[1]; HepG2 cells, inhibitor alone, 0.5% FBS",induces LDL receptor expression in a time-dependent manner
same,effect on expression of actin gene or sterol-sensitive gene SS,[2],without significantly affecting expression
same,kinetics of MEK-1/2 phosphorylation,[3],paralleled the appearance of p42/44^MAPK
same,effect on p42/44MAPK,[4],without effect
